Reference: BindingDB's records for doi:10.3109/14756366.2010.518965 (Guangzhou Institutes of Biomedicine and Health, Chinese …, 2011)
pIC50: −log10 of the molar value. Where a name gives a salt, the structure may show the parent alone.

Key:
Experiment in all cases: UDP-glucuronosyltransferase Activity Assay
[1] = target: T1, UDP-glucuronosyltransferase 2B10 (Homo sapiens, UniProt P36537)
T1 sequence (P36537 whole entry): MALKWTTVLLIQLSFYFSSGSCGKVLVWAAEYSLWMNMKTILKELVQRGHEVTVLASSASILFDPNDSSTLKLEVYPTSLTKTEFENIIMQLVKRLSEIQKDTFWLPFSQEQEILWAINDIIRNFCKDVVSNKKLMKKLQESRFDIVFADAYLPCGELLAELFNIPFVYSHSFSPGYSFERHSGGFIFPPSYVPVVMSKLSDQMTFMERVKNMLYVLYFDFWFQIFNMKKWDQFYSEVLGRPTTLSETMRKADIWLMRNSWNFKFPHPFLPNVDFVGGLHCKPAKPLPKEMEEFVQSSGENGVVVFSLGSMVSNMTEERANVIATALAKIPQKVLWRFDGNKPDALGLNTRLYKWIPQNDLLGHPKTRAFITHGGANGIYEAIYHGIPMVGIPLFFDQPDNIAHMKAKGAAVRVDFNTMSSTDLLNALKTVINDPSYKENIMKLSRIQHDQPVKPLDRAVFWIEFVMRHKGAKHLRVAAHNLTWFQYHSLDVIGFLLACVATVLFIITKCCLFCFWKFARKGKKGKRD

[2] = target: T2, UDP-glucuronosyltransferase 1A4 (Homo sapiens, UniProt P22310)
T2 sequence (P22310 whole entry): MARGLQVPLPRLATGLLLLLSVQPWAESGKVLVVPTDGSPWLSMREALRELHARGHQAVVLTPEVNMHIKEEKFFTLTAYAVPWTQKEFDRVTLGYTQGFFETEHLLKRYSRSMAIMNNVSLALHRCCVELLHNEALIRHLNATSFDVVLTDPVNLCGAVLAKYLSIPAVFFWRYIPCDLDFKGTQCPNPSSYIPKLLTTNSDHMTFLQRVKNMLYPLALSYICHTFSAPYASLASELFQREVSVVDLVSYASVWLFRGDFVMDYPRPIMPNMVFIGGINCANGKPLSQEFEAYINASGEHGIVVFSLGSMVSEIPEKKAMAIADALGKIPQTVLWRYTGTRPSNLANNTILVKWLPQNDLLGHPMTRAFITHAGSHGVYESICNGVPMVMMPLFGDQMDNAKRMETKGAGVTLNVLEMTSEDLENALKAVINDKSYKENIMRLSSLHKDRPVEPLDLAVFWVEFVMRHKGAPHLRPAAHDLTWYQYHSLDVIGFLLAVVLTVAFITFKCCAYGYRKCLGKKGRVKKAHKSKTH

[3] = target: T3, UDP-glucuronosyltransferase 2B7 (Homo sapiens, UniProt P16662)
T3 sequence (P16662 whole entry): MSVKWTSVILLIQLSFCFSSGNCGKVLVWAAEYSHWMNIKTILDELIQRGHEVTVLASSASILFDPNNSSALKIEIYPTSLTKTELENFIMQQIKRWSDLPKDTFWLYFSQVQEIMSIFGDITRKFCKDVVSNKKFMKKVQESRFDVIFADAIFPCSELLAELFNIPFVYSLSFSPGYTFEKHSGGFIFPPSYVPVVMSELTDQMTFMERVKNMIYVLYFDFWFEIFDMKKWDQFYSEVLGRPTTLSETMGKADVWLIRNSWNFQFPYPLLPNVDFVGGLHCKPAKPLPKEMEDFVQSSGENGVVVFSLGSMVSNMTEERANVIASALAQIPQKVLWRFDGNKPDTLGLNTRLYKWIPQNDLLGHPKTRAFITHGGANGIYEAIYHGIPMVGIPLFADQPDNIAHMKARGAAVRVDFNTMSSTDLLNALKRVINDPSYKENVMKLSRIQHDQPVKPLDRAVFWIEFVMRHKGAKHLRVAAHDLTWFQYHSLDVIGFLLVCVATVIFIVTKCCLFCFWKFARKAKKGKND

[4] = target: T4, UDP-glucuronosyltransferase 1A1 (Homo sapiens, UniProt P22309)
T4 sequence (P22309 whole entry): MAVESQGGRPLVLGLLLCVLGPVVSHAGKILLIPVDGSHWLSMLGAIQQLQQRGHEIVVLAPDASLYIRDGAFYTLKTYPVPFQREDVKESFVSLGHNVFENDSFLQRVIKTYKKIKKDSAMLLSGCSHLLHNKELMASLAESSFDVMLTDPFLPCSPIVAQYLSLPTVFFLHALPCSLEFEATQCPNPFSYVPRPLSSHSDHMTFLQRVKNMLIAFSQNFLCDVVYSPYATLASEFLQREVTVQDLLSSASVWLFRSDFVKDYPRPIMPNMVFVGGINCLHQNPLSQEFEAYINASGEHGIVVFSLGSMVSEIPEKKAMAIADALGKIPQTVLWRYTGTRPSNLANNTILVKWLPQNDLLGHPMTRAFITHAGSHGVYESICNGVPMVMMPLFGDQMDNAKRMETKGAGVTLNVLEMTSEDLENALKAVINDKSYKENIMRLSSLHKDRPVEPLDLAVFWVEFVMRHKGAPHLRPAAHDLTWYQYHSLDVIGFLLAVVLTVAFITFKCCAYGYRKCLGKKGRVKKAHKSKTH

[5] = target: T5, UDP-glucuronosyltransferase 1-6 (Homo sapiens, UniProt P19224)
T5 sequence (P19224 whole entry): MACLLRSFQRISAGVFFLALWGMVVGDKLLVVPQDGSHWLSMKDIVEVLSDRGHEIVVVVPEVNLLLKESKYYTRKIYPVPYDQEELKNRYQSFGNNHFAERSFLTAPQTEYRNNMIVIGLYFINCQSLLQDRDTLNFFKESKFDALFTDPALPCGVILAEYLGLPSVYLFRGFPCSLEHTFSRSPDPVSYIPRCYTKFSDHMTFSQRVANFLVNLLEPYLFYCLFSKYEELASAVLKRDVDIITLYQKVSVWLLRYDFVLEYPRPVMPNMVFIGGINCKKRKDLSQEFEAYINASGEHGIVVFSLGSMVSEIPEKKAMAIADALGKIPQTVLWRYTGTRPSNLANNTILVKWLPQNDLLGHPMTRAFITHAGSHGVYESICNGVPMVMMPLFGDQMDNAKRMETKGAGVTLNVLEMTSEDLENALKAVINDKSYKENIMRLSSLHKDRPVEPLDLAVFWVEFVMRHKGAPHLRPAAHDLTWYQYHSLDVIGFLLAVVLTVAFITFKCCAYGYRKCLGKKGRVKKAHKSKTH

Structure (SMILES)	pIC50 [1]	pIC50 [2]	pIC50 [3]	pIC50 [4]	pIC50 [5]
CC(=O)O[C@H]1C(=O)[C@@]2(C)[C@H]([C@H](OC(=O)c3ccccc3)[C@]3(O)C[C@H](OC(=O)[C@H](O)[C@@H](NC(=O)c4ccccc4)c4ccccc4)C(C)=C1C3(C)C)[C@]1(OC(C)=O)CO[C@@H]1C[C@@H]2O	< 3.52	5.31	< 3.52	4.70	4.13
O=c1cc(-c2ccccc2)oc2c1ccc1ccccc12	< 3.52	4.64	3.83	4.42	4.17
Nc1ccc(S(=O)(=O)Nc2ccnn2-c2ccccc2)cc1	< 3.52	< 3.52	< 3.52	< 3.52	< 3.52
CCCCNC(=O)NS(=O)(=O)c1ccc(C)cc1 [1-Butyl-3-(p-methylphenylsulfonyl)urea]	< 3.52	< 3.52	< 3.52	< 3.52	3.55
O=c1ccc2ccccc2o1 [2H-chromen-2-one]	< 3.52	< 3.52	< 3.52	< 3.52	< 3.52
Cc1ncc2n1-c1ccc(Cl)cc1C(c1ccccc1F)=NC2 [12-chloro-9-(2-fluorophenyl)-3-methyl-2,4,8-triazatricyclo[8.4.0.0^{2,6}]tetradeca-1(10),3,5,8,11,13-hexaene]	3.97		3.83	4.59	4.64
CC[C@@]1(c2ccccc2)NC(=O)N(C)C1=O [(5S)-5-Ethyl-3-methyl-5-phenyl-2,4-imidazolidinedione]	< 3.52	< 3.52	< 3.52	< 3.52	< 3.52
C=C[C@H]1C[N@@]2CC[C@H]1C[C@@H]2[C@@H](O)c1ccnc2ccc(OC)cc12 [(6-Methoxy-quinolin-4-yl)-(5-vinyl-1-aza-bicyclo[2.2.2]oct-2-yl)-methanol]	< 3.52	3.78	< 3.52	< 3.52	< 3.52
CCOc1ccc(NC(C)=O)cc1 [ACETPHENETIDIN]	< 3.52	< 3.52	< 3.52	< 3.52	< 3.52
CC(NC(C)(C)C)C(=O)c1cccc(Cl)c1 (stereo not given) [BUPROPION HYDROCHLORIDE]	4.06	3.82	< 3.52	< 3.52	< 3.52
Cc1ncsc1CCCl [Chlormethiazole]	< 3.52	< 3.52	< 3.52	< 3.52	< 3.52
COc1ccc2c(c1)[C@@]13CCCC[C@@H]1[C@@H](C2)N(C)CC3 [Dextromethorphan]	4.21	4.05	< 3.52	< 3.52	< 3.52
COc1ccc2[nH]c([S+]([O-])Cc3ncc(C)c(OC)c3C)nc2c1 (stereo not given) [H-168/68]	< 3.52	< 3.52	< 3.52	4.25	3.73
CC(=O)N1CCN(c2ccc(OC[C@@H]3CO[C@@](Cn4ccnc4)(c4ccc(Cl)cc4Cl)O3)cc2)CC1 [Nizoral]	4.66	4.24	4.22	5.39	4.72
CO[C@H]1C[C@H](O[C@H]2[C@H](C)[C@@H](O[C@@H]3O[C@H](C)C[C@H](N(C)C)[C@H]3O)[C@@H](C)C[C@@]3(CO3)C(=O)[C@H](C)[C@@H](O)[C@@H](C)[C@@H](C)OC(=O)[C@@H]2C)O[C@@H](C)[C@@H]1O [Oleandomycin]	< 3.52	4.23	3.57	4.36	< 3.52
C[C@]12CC[C@H]3[C@@H](CCC4=CC(=O)CC[C@@]43C)[C@@H]1CC[C@@H]2O [Testosterone, 1]	< 3.52		3.78	4.37	< 3.52
Cc1nc2c([nH]1)c(=O)n(C)c(=O)n2Cc1ccco1 [furafylline]	< 3.52	< 3.52	< 3.52	< 3.52	< 3.52
O=C(O)Cc1ccccc1Nc1c(Cl)cccc1Cl [{2-[(2,6-dichlorophenyl)amino]phenyl}acetic acid]		3.72		3.81	
